Laboratory results reported in patent US9637472B2, “Substituted 6,5-fused bicyclic heteroaryl compounds” (Epizyme, Inc., priority 2011, dated 2017).

Biological target: EZH2 (Homo sapiens (Human), UniProt Q15910)
Experiment: PRC2 enzyme assay on peptide substrates
Format: biochemical
Settings: PRC2 enzyme assays on peptide substrates; 4 nM enzyme, 30 min preincubation at 25° C.; read-out: EZH2 IC50
Text: General Materials. S-adenosylmethionine (SAM), S-adenosylhomocyteine (SAH), bicine, KCl, Tween20, dimethylsulfoxide (DMSO) and bovine skin gelatin (BSG) were purchased from Sigma-Aldrich at the highest level of purity possible. Dithiothreitol (DTT) was purchased from EMD. ^3H-SAM was purchased from American Radiolabeled Chemicals with a specific activity of 80 Ci/mmol. 384-well streptavidin Flashplates were purchased from PerkinElmer.
Substrates. […] The sequences are listed below.
Recombinant PRC2 Enzymes. Human PRC2 enzymes were purified as 4-component enzyme complexes co-expressed in Spodoptera frugiperda (sf9) cells using a baculovirus expression system. The subunits expressed were wild-type EZH2 (NM_004456) or EZH2 Y641F, N, H, S or C mutants generated from the wild-type EZH2 construct, EED (NM_003797), Suz12 (NM_015355) and RbAp48 (NM_005610). The EED subunit contained an N-terminal FLAG tag that was used to purify the entire 4-component complex from sf9 cell lysates.
General Procedure for PRC2 Enzyme Assays on Peptide Substrates. The assays were all performed in a buffer consisting of 20 mM bicine (pH=7.6), 0.5 mM DTT, 0.005% BSG and 0.002% Tween20, prepared on the day of use. […] DMSO (1 μL) was added to columns 11, 12, 23, 24, rows A-H for the maximum signal control, and SAH, a known product and inhibitor of PRC2 (1 μL) was added to columns 11, 12, 23, 24, rows I-P for the minimum signal control. A cocktail (40 μL) containing the wild-type PRC2 enzyme and H3K27me0 peptide or any of the Y641 mutant enzymes and H3K27me2 peptide was added by Multidrop Combi (Thermo). The compounds were allowed to incubate with PRC2 for 30 min at 25° C., then a cocktail (10 μL) containing a mixture of non-radioactive and ^3H-SAM was added to initiate the reaction (final volume=51 μL). […] The assays were stopped by the addition of non-radioactive SAM (10 μL) to a final concentration of 600 μM, which dilutes the ^3H-SAM to a level where its incorporation into the peptide substrate is no longer detectable. 50 μL of the reaction in the 384-well polypropylene plate was then transferred to a 384-well Flashplate and the biotinylated peptides were allowed to bind to the streptavidin surface for at least 1 h before being washed three times with 0.1% Tween20 in a Biotek ELx405 plate washer. The plates were then read in a PerkinElmer TopCount platereader to measure the quantity of ^3H-labeled peptide bound to the Flashplate surface, measured as disintegrations per minute (dpm) or alternatively, referred to as counts per minute (cpm).
Where dpm=disintegrations per minute, cmpd=signal in assay well, and min and max are the respective minimum and maximum signal controls.
Where top and bottom are the normally allowed to float, but may be fixed at 100 or 0 respectively in a 3-parameter fit. The Hill Coefficient normally allowed to float but may also be fixed at 1 in a 3-parameter fit. Y is the % inhibition and X is the compound concentration.

Chain of EZH2 (Q15910 other isoform, or with tags, fused parts or gaps): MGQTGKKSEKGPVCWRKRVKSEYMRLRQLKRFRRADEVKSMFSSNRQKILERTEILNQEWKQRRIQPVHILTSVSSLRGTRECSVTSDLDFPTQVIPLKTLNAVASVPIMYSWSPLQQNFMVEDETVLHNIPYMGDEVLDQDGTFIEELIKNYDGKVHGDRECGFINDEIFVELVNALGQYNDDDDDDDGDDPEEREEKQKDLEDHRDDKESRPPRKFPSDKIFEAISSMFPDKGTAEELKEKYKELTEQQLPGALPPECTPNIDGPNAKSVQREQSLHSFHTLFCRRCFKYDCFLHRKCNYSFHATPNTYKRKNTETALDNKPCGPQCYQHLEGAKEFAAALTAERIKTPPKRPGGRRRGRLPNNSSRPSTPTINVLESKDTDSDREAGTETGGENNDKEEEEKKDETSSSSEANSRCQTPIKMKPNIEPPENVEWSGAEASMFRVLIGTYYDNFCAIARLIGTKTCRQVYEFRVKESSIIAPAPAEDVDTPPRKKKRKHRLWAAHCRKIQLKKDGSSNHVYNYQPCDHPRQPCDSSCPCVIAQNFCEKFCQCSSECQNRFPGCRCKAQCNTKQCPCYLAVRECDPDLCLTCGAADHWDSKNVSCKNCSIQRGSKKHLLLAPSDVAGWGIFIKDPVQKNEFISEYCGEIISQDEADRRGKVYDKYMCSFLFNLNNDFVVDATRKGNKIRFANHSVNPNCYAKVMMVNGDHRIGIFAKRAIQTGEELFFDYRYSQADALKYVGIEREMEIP
Chain of EZH2 (O75530 whole entry partner): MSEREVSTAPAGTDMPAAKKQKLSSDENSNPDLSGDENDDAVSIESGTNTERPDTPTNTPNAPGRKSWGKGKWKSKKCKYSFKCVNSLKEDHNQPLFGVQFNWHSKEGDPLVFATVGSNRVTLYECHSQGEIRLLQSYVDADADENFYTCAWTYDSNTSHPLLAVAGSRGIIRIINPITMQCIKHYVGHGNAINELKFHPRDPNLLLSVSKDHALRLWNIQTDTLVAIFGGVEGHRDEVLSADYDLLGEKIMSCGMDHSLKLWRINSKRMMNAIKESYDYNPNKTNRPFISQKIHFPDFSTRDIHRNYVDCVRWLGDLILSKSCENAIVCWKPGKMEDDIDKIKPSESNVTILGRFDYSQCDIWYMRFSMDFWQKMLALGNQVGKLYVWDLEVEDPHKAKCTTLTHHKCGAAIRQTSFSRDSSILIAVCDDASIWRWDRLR
Chain of EZH2 (Q15022 whole entry partner): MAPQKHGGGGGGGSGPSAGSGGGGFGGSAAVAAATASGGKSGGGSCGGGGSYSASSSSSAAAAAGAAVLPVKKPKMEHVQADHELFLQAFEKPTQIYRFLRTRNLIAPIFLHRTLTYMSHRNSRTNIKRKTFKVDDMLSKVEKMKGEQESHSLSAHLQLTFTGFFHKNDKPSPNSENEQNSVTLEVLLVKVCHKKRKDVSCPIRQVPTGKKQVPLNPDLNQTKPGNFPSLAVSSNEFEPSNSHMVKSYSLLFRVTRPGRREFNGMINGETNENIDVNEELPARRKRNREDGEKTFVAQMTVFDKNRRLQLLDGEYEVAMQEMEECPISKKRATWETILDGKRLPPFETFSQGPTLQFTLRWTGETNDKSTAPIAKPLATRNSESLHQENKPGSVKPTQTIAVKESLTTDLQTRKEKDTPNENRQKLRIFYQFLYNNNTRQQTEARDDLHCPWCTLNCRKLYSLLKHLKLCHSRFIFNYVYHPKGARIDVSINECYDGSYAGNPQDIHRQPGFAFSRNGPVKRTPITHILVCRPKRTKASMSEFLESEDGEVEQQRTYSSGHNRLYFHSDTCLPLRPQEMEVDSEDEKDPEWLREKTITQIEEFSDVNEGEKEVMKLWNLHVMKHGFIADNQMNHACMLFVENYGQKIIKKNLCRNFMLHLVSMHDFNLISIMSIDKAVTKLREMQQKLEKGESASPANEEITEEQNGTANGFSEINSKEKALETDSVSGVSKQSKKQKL
Chain of EZH2 (Q09028 whole entry partner): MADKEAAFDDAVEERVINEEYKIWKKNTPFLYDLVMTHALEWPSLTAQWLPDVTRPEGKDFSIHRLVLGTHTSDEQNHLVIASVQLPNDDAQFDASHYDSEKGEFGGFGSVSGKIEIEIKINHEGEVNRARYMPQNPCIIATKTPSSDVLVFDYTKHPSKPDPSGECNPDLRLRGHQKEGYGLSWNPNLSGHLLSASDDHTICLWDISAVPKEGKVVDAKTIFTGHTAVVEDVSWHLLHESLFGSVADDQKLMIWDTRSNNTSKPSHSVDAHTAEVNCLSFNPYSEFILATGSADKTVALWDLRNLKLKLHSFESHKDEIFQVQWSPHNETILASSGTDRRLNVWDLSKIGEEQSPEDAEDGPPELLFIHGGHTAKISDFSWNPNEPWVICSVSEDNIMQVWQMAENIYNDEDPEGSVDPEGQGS

| SMILES | IC50 [µM] |
| --- | --- |
| Cc1ccc(CNC(=O)c2cc(-c3ccc(N4CCN(C)CC4)nc3)nc3c2cnn3C(C)C)c(=O)[nH]1 [Compound A-60] | 1 to 3 |
| Cc1cc(C)c(CNC(=O)c2cc(-c3cccnc3N3CCN(C)CC3)nc3c2cnn3C(C)C)c(=O)[nH]1 [Compound A-63] | 1 to 3 |
| Cc1ccc(-n2ncc3c(C(=O)NCc4c(C)cc(C)[nH]c4=O)cc(-c4ccc(N5CCN(C)CC5)nc4)nc32)cc1 [Compound A-65] | 3 to 10 |
| Cc1cc(C)c(CNC(=O)c2cc(-c3cccnc3N3CCNCC3)nc3c2cnn3C(C)C)c(=O)[nH]1 [Compound A-66] | 1 to 3 |
| Cc1cc(C)c(CNC(=O)c2cc(-c3cccc(C(=O)O)c3)nc3c2cnn3C(C)C)c(=O)[nH]1 [Compound A-67] | 1 to 3 |
| Cc1cc(C)c(CNC(=O)c2cc(-c3ccc(-c4ccccc4CN)nc3)nc3c2cnn3C(C)C)c(=O)[nH]1 [Compound A-68] | 3 to 10 |
| Cc1cc[nH]c(=O)c1CNC(=O)c1cc(-c2cccc(CN(C)CCN(C)C)c2)nc2c1cnn2C(C)C [Compound A-70] | 3 to 10 |
| CC(C)n1ncc2c(C(=O)NCc3cc4c([nH]c3=O)CCNC4)cc(-c3ccc4c(c3)OCCO4)nc21 [Compound A-71] | 10 to 50 |
| Cc1cc[nH]c(=O)c1CNC(=O)c1cc(-c2cccc(CN3CCN(C)CC3)c2)nc2c1cnn2C(C)C [Compound A-72] | 10 to 50 |
| Cc1cc(C)c(CN(C)C(=O)c2cc(-c3cccc(CN4CCN(C)CC4)c3)nc3c2cnn3C(C)C)c(=O)[nH]1 [Compound A-73] | 10 to 50 |
| Cc1cc(C)n(C)c(=O)c1CNC(=O)c1cc(-c2cccc(CN(C)CCN(C)C)c2)nc2c1CNN2C(C)C [Compound A-74] | 10 to 50 |
| Cc1cc[nH]c(=O)c1CNC(=O)c1cc(-c2ccc3c(c2)OCCO3)nc2c1cnn2C(C)C [Compound A-77] | 10 to 50 |
| Cc1cc(C)c(CNC(=O)c2cc(-c3cccc(CNC(=O)OC(C)(C)C)c3)nc3c2cnn3C(C)C)c(=O)[nH]1 [Compound A-92] | 1 to 3 |
| C=C(C)c1nn(C(C)C)c2nc(-c3ccc(CN4CCOCC4)cc3)cc(C(=O)NCc3c(C)cc(C)[nH]c3=O)c12 [Compound A-94] | 3 to 10 |
| Cc1cc(C)c(CNC(=O)c2cc(-c3cccnc3N3CCN(C(=O)OC(C)(C)C)CC3)nc3c2cnn3C(C)C)c(=O)[nH]1 [Compound A-95] | 3 to 10 |
| Cc1cc(CO)c(CNC(=O)c2cc(-c3ccc(CN4CCOCC4)cc3)nc3c2cnn3C(C)C)c(=O)[nH]1 [Compound A-96] | 3 to 10 |
| Cc1cc(C)c(CNC(=O)c2cc(-c3ccccc3CNC(=O)OC(C)(C)C)nc3c2cnn3C(C)C)c(=O)[nH]1 [Compound A-98] | 10 to 50 |

| SMILES | IC50 [µM] |
| --- | --- |
| Cc1ccc(CNC(=O)c2cc(-c3cccc(CN(C)CCN(C)C)c3)nc3c2cnn3C(C)C)c(=O)[nH]1 [Compound A-99] | 10 to 50 |
| Cc1ccc(CNC(=O)c2cc(-c3cccc(CN4CCN(C)CC4)c3)nc3c2cnn3C(C)C)c(=O)[nH]1 [Compound A-100] | 10 to 50 |
| Cc1cc(C)c(CNC(=O)c2cc(-c3ccc(N4CCN(C)CC4)nc3)nc3c2cnn3-c2ccccc2)c(=O)[nH]1 [Compound A-109] | 10 to 50 |
| CCc1ccc(CNC(=O)c2cc(-c3ccc4c(c3)OCCO4)nc3c2cnn3C(C)C)c(=O)[nH]1 [Compound A-110] | 10 to 50 |
| CC1=CC(C)=C(CNC(=O)c2cc(-c3cccc(CNCCCN(C)C)c3)nc3c2cnn3C(C)C)C(C)N1 (stereo not shown) [Compound A-125] | 1 to 3 |
| Cc1cc(C)c(CNC(=O)c2cc(-c3cccc(CNCCN4CCOCC4)c3)nc3c2cnn3C(C)C)c(=O)[nH]1 [Compound A-126] | 0.3 to 1 |
| Cc1cc(C)c(CNC(=O)c2cc(C3=CC(C)(C)NC(C)(C)C3)nc3c2cnn3C2CCN(Cc3ccccc3)CC2)c(=O)[nH]1 [Compound B-1, 1-(1-benzylpiperidin-4-yl)-N-((4,6-dimethyl-2-oxo-1,2-dihydropyridin-3-yl)methyl)-6-(2,2,6,6-tetramethyl-1,2,3,6-tetrahydropyridin-4-yl)-1H-pyrazolo[3,4-b]pyridine-4-carboxamide] | < 0.3 |
| CC(=O)N1CCC(n2ncc3c(C(=O)NCc4c(C)cc(C)[nH]c4=O)cc(C4=CC(C)(C)NC(C)(C)C4)nc32)CC1 [Compound B-2, 1-(1-acetylpiperidin-4-yl)-N-((4,6-dimethyl-2-oxo-1,2-dihydropyridin-3-yl)methyl)-6-(2,2,6,6-tetramethyl-1,2,3,6-tetrahydropyridin-4-yl)-1H-pyrazolo[3,4-b]pyridine-4-carboxamide] | 0.3 to 1 |
| C=C(C)Cn1ncc2c(C(=O)NCc3c(C)cc(C)[nH]c3=O)cc(C3=CC(C)(C)NC(C)(C)C3)nc21 [Compound B-3, N-((4,6-dimethyl-2-oxo-1,2-dihydropyridin-3-yl)methyl)-1-(2-methylallyl)-6-(2,2,6,6-tetramethyl-1,2,3,6-tetrahydropyridin-4-yl)-1H-pyrazolo[3,4-b]pyridine-4-carboxamide] | 1 to 3 |
| Cc1cc(C)c(CNC(=O)c2cc(C3=CC(C)(C)NC(C)(C)C3)nc3c2cnn3C2CCCC2)c(=O)[nH]1 [Compound B-5, 1-cyclopentyl-N-((4,6-dimethyl-2-oxo-1,2-dihydropyridin-3-yl)methyl)-6-(2,2,6,6-tetramethyl-1,2,3,6-tetrahydropyridin-4-yl)-1H-pyrazolo[3,4-b]pyridine-4-carboxamide] | < 0.3 |
| Cc1cc(C)c(CNC(=O)c2cc(OC3CCN(C)CC3)nc3c2cnn3C(C)C)c(=O)[nH]1 [Compound B-6, N-((4,6-dimethyl-2-oxo-1,2-dihydropyridin-3-yl)methyl)-1-isopropyl-6-((1-methylpiperidin-4-yl)oxy)-1H-pyrazolo[3,4-b]pyridine-4-carboxamide] | 0.3 to 1 |
| Cc1cc(C)c(CNC(=O)c2cc(C3CCN(C(=O)C4CN(C)C4)CC3)nc3c2cnn3C(C)C)c(=O)[nH]1 [Compound B-8, N-((4,6-dimethyl-2-oxo-1,2-dihydropyridin-3-yl)methyl)-1-isopropyl-6-(1-(1-methylazetidine-3-carbonyl)piperidin-4-yl)-1H-pyrazolo[3,4-b]pyridine-4-carboxamide] | < 0.3 |
| Cc1cc(C)c(CNC(=O)c2cc(N3CCN(C)CC3)nc3c2cnn3C(C)C)c(=O)[nH]1 [Compound B-9, N-((4,6-dimethyl-2-oxo-1,2-dihydropyridin-3-yl)methyl)-1-isopropyl-6-(4-methylpiperazin-1-yl)-1H-pyrazolo[3,4-b]pyridine-4-carboxamide] | 1 to 3 |
| Cc1cc(C)c(CNC(=O)c2cc(N3CCC(O)CC3)nc3c2cnn3C(C)C)c(=O)[nH]1 [Compound B-11, N-((4,6-dimethyl-2-oxo-1,2-dihydropyridin-3-yl)methyl)-6-(4-hydroxypiperidin-1-yl)-1-isopropyl-1H-pyrazolo[3,4-b]pyridine-4-carboxamide] | 1 to 3 |
| Cc1cc(C)c(CNC(=O)c2c(Cl)c(C3=CC(C)(C)NC(C)(C)C3)nc3c2cnn3C(C)C)c(=O)[nH]1 [Compound B-12, 5-chloro-N-((4,6-dimethyl-2-oxo-1,2-dihydropyridin-3-yl)methyl)-1-isopropyl-6-(2,2,6,6-tetramethyl-1,2,3,6-tetrahydropyridin-4-yl)-1H-pyrazolo[3,4-b]pyridine-4-carboxamide] | 1 to 3 |
| Cc1cc(C)c(CNC(=O)c2cc(C3=CC(C)(C)NC(C)(C)C3)nc3c2c(C)nn3C(C)C)c(=O)[nH]1 [Compound B-13, N-((4,6-dimethyl-2-oxo-1,2-dihydropyridin-3-yl)methyl)-1-isopropyl-3-methyl-6-(2,2,6,6-tetramethyl-1,2,3,6-tetrahydropyridin-4-yl)-1H-pyrazolo[3,4-b]pyridine-4-carboxamide] | 0.3 to 1 |
| Cc1cc(C)c(CNC(=O)c2cc(C3=CC(C)(C)NC(C)(C)C3)nc3c2cnn3C2CCC2)c(=O)[nH]1 [Compound B-14, 1-cyclobutyl-N-((4,6-dimethyl-2-oxo-1,2-dihydropyridin-3-yl)methyl)-6-(2,2,6,6-tetramethyl-1,2,3,6-tetrahydropyridin-4-yl)-1H-pyrazolo[3,4-b]pyridine-4-carboxamide] | 0.3 to 1 |
